What was measured:
[1] = tested on: primary human dermal fibroblasts (HDF); assay: Primary human dermal fibroblast (HDF) proliferation assay (2D), SRB staining; format: cell-based
Description: Primary human dermal fibroblasts (HDF) were purchased from CELLnTEC, Bern. They were routinely grown in Dulbecco's modified Eagle's medium (DMEM) containing 10% FCS, 2 mM glutamine, and 100 U/ml penicillin/100 μg/ml streptomycin. Media, antibiotics, and glutamine were bought from Lonza. The cells were used at passage 10. Cells were trypsinized and seeded at 5000 cells/well in 200 μl into the inner wells of 96-well plates. The outer wells were loaded with sterile water. The cells were allowed to adhere overnight and then incubated for 72 hours at 37° C. under the following conditions: graded compound concentrations or 20 ng/ml PDGF-BB (Tonbo Biosciences # TO-21-8501-U010) in the absence or presence of different dilutions of sterile-filtered WE in medium. For negative control samples, 200 μl medium was added instead of specific stimuli. Alternatively, the cells were seeded into 384-well plates at 2500 cells/well together with test compounds or growth factors and WE or medium in a total volume of 50 μl. […]
Total cellular protein was determined as a measure of cell number by staining the fixed cells with sulforhodamine B (SRB, Sigma). […] After drying, the dye was eluted with 10 mM Tris.HCl, pH8.5, and absorbance was measured either at 550 or 492 nm for lower and higher cell densities, respectively. The average absorbance of the sample representing the day 1 starting cell number (for 96-well plates) was subtracted from the absorbance values of the WE-treated cells.
All experiments were carried out in triplicate for each sample and concentration, and means±standard deviation (SD) were used for the evaluation of the experiment. Results are expressed as percentage of control values for unstimulated cells.
For screening with WE, compound results were calculated as % proliferation of untreated and unstimulated control (=100%), and the cut-off for a positive hit was defined as % average proliferationWE+3*standard deviation, as shown in FIG. 5.

chronic wounds = settings: non-steroidal anti-inflammatory drug; cited from earlier work

CNC(=O)[C@H](Cc1c[nH]c2ccccc12)NC(=O)[C@@H](CC(=O)NO)CC(C)C [GM6001]
effect on the effect of wound exudate on HDF proliferation ([1]; in presence of WE #49 (highest MMP activity), FIG. 22): partially reverses | effect on HDF proliferation ([1]; medium or WE without MMP activity, FIG. 22): no effect

CC(C)Cc1ccc(C(C)C(=O)O)cc1 (stereo not shown) [ibuprofen]
effectiveness in wounds (chronic wounds): only effective in ameliorating wound pain

PDGF
effect on the growth inhibitory effect of wound exudate in 2D fibroblast proliferation ([1]; in presence of aggressive, non-healing WE #49, FIG. 21): only partially reverses

Source: patent US11579141B2, “Methods for identifying a non-healing skin wound and for monitoring the healing of a skin wound” (AKRIBES BIOMEDICAL GMBH, priority 2016, dated 2023)
